# Reference: ChEMBL document CHEMBL2375251, “Anticancer activity of novel hybrid molecules containing 5-benzylidene thiazolidine-2,4-dione” (Eur J Med Chem, 2013)
# Active and inactive are the calls of the source. The calls are words filed in the database; no cut-off is given here.
# How the values were obtained:
# MOLT-3 [1] = experiment: Induction of apoptosis in human MOLT3 cells assessed as caspase 3/7-mediated DEVD-pNA cleavage at 1 uM after 6 hrs by colorimetric assay relative to control; format: functional
# U-937 [2] = experiment: Induction of apoptosis in human U937 cells assessed as caspase 3/7-mediated DEVD-pNA cleavage at 1 uM after 6 hrs by colorimetric assay relative to control; format: functional
# HL-60 [3] = experiment: Induction of apoptosis in human HL60 cells assessed as caspase 3/7-mediated DEVD-pNA cleavage at 1 uM after 6 hrs by colorimetric assay relative to control; format: functional
# MOLT-3 [4] = experiment: Induction of apoptosis in human MOLT3 cells assessed as caspase9-mediated LEHD-pNA cleavage at 1 uM after 6 hrs by colorimetric assay; format: functional, cell-based
# U-937 [5] = experiment: Induction of apoptosis in human U937 cells assessed as caspase9-mediated LEHD-pNA cleavage at 1 uM after 6 hrs by colorimetric assay; format: functional, cell-based
# HL-60 [6] = experiment: Induction of apoptosis in human HL60 cells assessed as caspase9-mediated LEHD-pNA cleavage at 1 uM after 6 hrs by colorimetric assay; format: functional, cell-based
# MOLT-3 [7] = experiment: Induction of apoptosis in human MOLT3 cells assessed as caspase 8-mediated IETD-pNA cleavage at 1 uM after 6 hrs by colorimetric assay; format: functional, cell-based
# U-937 [8] = experiment: Induction of apoptosis in human U937 cells assessed as caspase 8-mediated IETD-pNA cleavage at 1 uM after 6 hrs by colorimetric assay; format: functional, cell-based
# MOLT-3 [9] = experiment: Induction of apoptosis in human MOLT3 cells assessed as caspase 3/7-mediated DEVD-pNA cleavage at 1 uM after 6 hrs by colorimetric assay; format: functional, cell-based
# HL-60 [10] = experiment: Induction of apoptosis in human HL60 cells assessed as caspase 8-mediated IETD-pNA cleavage at 1 uM after 6 hrs by colorimetric assay; format: functional, cell-based
# U-937 [11] = experiment: Induction of apoptosis in human U937 cells assessed as caspase 3/7-mediated DEVD-pNA cleavage at 1 uM after 6 hrs by colorimetric assay; format: functional, cell-based
# HL-60 [12] = experiment: Induction of apoptosis in human HL60 cells assessed as caspase 3/7-mediated DEVD-pNA cleavage at 1 uM after 6 hrs by colorimetric assay; format: functional, cell-based
# MOLT-3 [13] = experiment: Induction of apoptosis in human MOLT3 cells assessed as cytochrome c release at 1 uM after 6 hrs by Western blot analysis; format: functional, cell-based
# U-937 [14] = experiment: Induction of apoptosis in human U937 cells assessed as cytochrome c release at 1 uM after 6 hrs by Western blot analysis; format: functional, cell-based
# HL-60 [15] = experiment: Induction of apoptosis in human HL60 cells assessed as cytochrome c release at 1 uM after 6 hrs by Western blot analysis; format: functional, cell-based
# MOLT-3 [16] = experiment: Induction of apoptosis in human MOLT3 cells assessed as caspase-3-mediated PARP hydrolysis at 1 uM after 6 hrs by Western blot analysis; format: functional, cell-based
# U-937 [17] = experiment: Induction of apoptosis in human U937 cells assessed as caspase-3-mediated PARP hydrolysis at 1 uM after 6 hrs by Western blot analysis; format: functional, cell-based
# HL-60 [18] = experiment: Induction of apoptosis in human HL60 cells assessed as caspase-3-mediated PARP hydrolysis at 1 uM after 6 hrs by Western blot analysis; format: functional, cell-based
# MOLT-3 [19] = experiment: Induction of apoptosis in human MOLT3 cells assessed as procaspase-9 activation at 1 uM after 6 hrs by Western blot analysis; format: functional, cell-based
# U-937 [20] = experiment: Induction of apoptosis in human U937 cells assessed as procaspase-9 activation at 1 uM after 6 hrs by Western blot analysis; format: functional, cell-based
# HL-60 [21] = experiment: Induction of apoptosis in human HL60 cells assessed as procaspase-9 activation at 1 uM after 6 hrs by Western blot analysis; format: functional, cell-based
# MOLT-3 [22] = experiment: Induction of apoptosis in human MOLT3 cells assessed as procaspase-8 activation at 1 uM after 6 hrs by Western blot analysis; format: functional, cell-based
# U-937 [23] = experiment: Induction of apoptosis in human U937 cells assessed as procaspase-8 activation at 1 uM after 6 hrs by Western blot analysis; format: functional, cell-based
# HL-60 [24] = experiment: Induction of apoptosis in human HL60 cells assessed as procaspase-8 activation at 1 uM after 6 hrs by Western blot analysis; format: functional, cell-based
# MOLT-3 [25] = experiment: Induction of apoptosis in human MOLT3 cells assessed as procaspase-7 activation at 1 uM after 6 hrs by Western blot analysis; format: functional, cell-based
# U-937 [26] = experiment: Induction of apoptosis in human U937 cells assessed as procaspase-6 activation at 1 uM after 6 hrs by Western blot analysis; format: functional, cell-based
# HL-60 [27] = experiment: Induction of apoptosis in human HL60 cells assessed as procaspase-6 activation at 1 uM after 6 hrs by Western blot analysis; format: functional, cell-based
# MOLT-3 [28] = experiment: Induction of apoptosis in human MOLT3 cells assessed as procaspase-3 activation at 1 uM after 6 hrs by Western blot analysis; format: functional, cell-based
# U-937 [29] = experiment: Induction of apoptosis in human U937 cells assessed as procaspase-3 activation at 1 uM after 6 hrs by Western blot analysis; format: functional, cell-based
# HL-60 [30] = experiment: Induction of apoptosis in human HL60 cells assessed as procaspase-3 activation at 1 uM after 6 hrs by Western blot analysis; format: functional, cell-based
# HL-60 [31] = experiment: Induction of apoptosis in human HL60 cells assessed as hypodiploid DNA content at 3 uM after 6 hrs by propidium iodide staining-based flow cytometry relative to control; format: functional
# MOLT-3 [32] = experiment: Induction of apoptosis in human MOLT3 cells assessed as chromatin hydrolysis at 1 uM after 6 hrs by agarose gel electrophoresis; format: functional, cell-based
# U-937 [33] = experiment: Induction of apoptosis in human U937 cells assessed as chromatin hydrolysis at 1 uM after 6 hrs by agarose gel electrophoresis; format: functional, cell-based
# HL-60 [34] = experiment: Induction of apoptosis in human HL60 cells assessed as chromatin hydrolysis at 1 uM after 6 hrs by agarose gel electrophoresis; format: functional, cell-based
# U-937 [35] = experiment: Induction of apoptosis in human U937 cells assessed as appearance of apoptotic bodies at 1 uM after 6 hrs by Hoechst 33258 staining based fluorescence microscopy; format: functional, cell-based
# U-937 [36] = experiment: Induction of apoptosis in human U937 cells assessed as chromatin condensation at 1 uM after 6 hrs by Hoechst 33258 staining based fluorescence microscopy; format: functional, cell-based
# HL-60 [37] = experiment: Induction of apoptosis in human HL60 cells assessed as appearance of apoptotic bodies at 1 uM after 6 hrs by Hoechst 33258 staining based fluorescence microscopy; format: functional, cell-based
# HL-60 [38] = experiment: Induction of apoptosis in human HL60 cells assessed as chromatin condensation at 1 uM after 6 hrs by Hoechst 33258 staining based fluorescence microscopy; format: functional, cell-based
# MOLT-3 [39] = experiment: Cytotoxicity against human MOLT3 cells after 4 hrs by MTT assay; format: functional, cell-based; conditions: for IC50: MOLT-3, 4 h
# U-937 [40] = experiment: Cytotoxicity against human U937 cells after 4 hrs by MTT assay; format: functional, cell-based; conditions: for IC50: U-937, 4 h
# HL-60 [41] = experiment: Cytotoxicity against human HL60 cells after 4 hrs by MTT assay; format: functional, cell-based; conditions: for IC50: HL-60, 4 h
# HeLa = experiment: Cytotoxicity against human HeLa cells after 4 days by Coulter counter analysis; format: functional, cell-based; conditions: 96 h
# CCRF-CEM = experiment: Cytotoxicity against human CEM cells after 3 days by Coulter counter analysis; format: functional, cell-based; conditions: 72 h
# FM3A = experiment: Cytotoxicity against mouse FM3A cells after 2 days by Coulter counter analysis; format: functional, cell-based; conditions: 48 h
# L1210 = experiment: Cytotoxicity against mouse L1210 cells after 2 days by Coulter counter analysis; format: functional, cell-based; conditions: L1210, 48 h
# U-937 [42] = experiment: Induction of apoptosis in human U937 cells assessed as procaspase-7 activation at 1 uM after 6 hrs by Western blot analysis; format: functional, cell-based
# HL-60 [43] = experiment: Induction of apoptosis in human HL60 cells assessed as procaspase-7 activation at 1 uM after 6 hrs by Western blot analysis; format: functional, cell-based
# MOLT-3 [44] = experiment: Induction of apoptosis in human MOLT3 cells assessed as procaspase-6 activation at 1 uM after 6 hrs by Western blot analysis; format: functional, cell-based
# U-937 [45] = experiment: Induction of apoptosis in human U937 cells assessed as hypodiploid DNA content at 3 uM after 6 hrs by propidium iodide staining-based flow cytometry relative to control; format: functional
compound,measurement,setting,value
C=C(Br)C(=O)Nc1cccc(/C=C2\SC(=O)N(Cc3ccc(C(F)(F)F)cc3)C2=O)c1,fold change (FC),MOLT-3 [1],>2
same,fold change (FC),U-937 [2],>10
same,fold change (FC),HL-60 [3],>5
same,Activity,MOLT-3 [4],Active
same,Activity,U-937 [5],Active
same,Activity,HL-60 [6],Active
same,Activity,MOLT-3 [7],Active
same,Activity,U-937 [8],Active
same,Activity,MOLT-3 [9],Active
same,Activity,HL-60 [10],Active
same,Activity,U-937 [11],Active
same,Activity,HL-60 [12],Active
same,Activity,MOLT-3 [13],Active
same,Activity,U-937 [14],Active
same,Activity,HL-60 [15],Active
same,Activity,MOLT-3 [16],Active
same,Activity,U-937 [17],Active
same,Activity,HL-60 [18],Active
same,Activity,MOLT-3 [19],Active
same,Activity,U-937 [20],Active
same,Activity,HL-60 [21],Active
same,Activity,MOLT-3 [22],Active
same,Activity,U-937 [23],Active
same,Activity,HL-60 [24],Active
same,Activity,MOLT-3 [25],Active
same,Activity,U-937 [26],Active
same,Activity,HL-60 [27],Active
same,Activity,MOLT-3 [28],Active
same,Activity,U-937 [29],Active
same,Activity,HL-60 [30],Active
same,fold change (FC),HL-60 [31],23
same,Activity,MOLT-3 [32],inactive
same,Activity,U-937 [33],Active
same,Activity,HL-60 [34],Active
same,Activity,U-937 [35],Active
same,Activity,U-937 [36],Active
same,Activity,HL-60 [37],Active
same,Activity,HL-60 [38],Active
same,Activity,MOLT-3 [39],Dose-dependent effect
same,IC50,MOLT-3 [39],710 nM
same,Activity,U-937 [40],Dose-dependent effect
same,IC50,U-937 [40],500 nM
same,Activity,HL-60 [41],Dose-dependent effect
same,IC50,HL-60 [41],450 nM
same,IC50,HeLa,820 nM
same,IC50,CCRF-CEM,920 nM
same,IC50,FM3A,870 nM
same,IC50,L1210,720 nM
same,Activity,U-937 [42],Active
same,Activity,HL-60 [43],Active
same,Activity,MOLT-3 [44],Active
same,fold change (FC),U-937 [45],16
C=C(Br)C(=O)Nc1cccc(/C=C2\SC(=O)N(Cc3ccc(F)cc3)C2=O)c1,fold change (FC),MOLT-3 [1],>2
same,fold change (FC),U-937 [2],>10
same,fold change (FC),HL-60 [3],>5
same,Activity,MOLT-3 [4],Active
same,Activity,U-937 [5],Active
same,Activity,HL-60 [6],Active
same,Activity,MOLT-3 [7],Active
same,Activity,U-937 [8],Active
same,Activity,MOLT-3 [9],Active
same,Activity,HL-60 [10],Active
same,Activity,U-937 [11],Active
same,Activity,HL-60 [12],Active
same,Activity,MOLT-3 [13],Active
same,Activity,U-937 [14],Active
same,Activity,HL-60 [15],Active
same,Activity,MOLT-3 [16],Active
same,Activity,U-937 [17],Active
same,Activity,HL-60 [18],Active
same,Activity,MOLT-3 [19],Active
same,Activity,U-937 [20],Active
same,Activity,HL-60 [21],Active
same,Activity,MOLT-3 [22],Active
same,Activity,U-937 [23],Active
same,Activity,HL-60 [24],Active
same,Activity,MOLT-3 [25],Active
same,Activity,U-937 [26],Active
same,Activity,HL-60 [27],Active
same,Activity,MOLT-3 [28],Active
same,Activity,U-937 [29],Active
same,Activity,HL-60 [30],Active
same,fold change (FC),HL-60 [31],12
same,Activity,MOLT-3 [32],inactive
same,Activity,U-937 [33],Active
same,Activity,HL-60 [34],Active
same,Activity,U-937 [35],Active
same,Activity,U-937 [36],Active
same,Activity,HL-60 [37],Active
same,Activity,HL-60 [38],Active
same,Activity,MOLT-3 [39],Dose-dependent effect
same,IC50,MOLT-3 [39],640 nM
same,Activity,U-937 [40],Dose-dependent effect
same,IC50,U-937 [40],530 nM
same,Activity,HL-60 [41],Dose-dependent effect
same,IC50,HL-60 [41],770 nM
same,IC50,HeLa,800 nM
same,IC50,CCRF-CEM,680 nM
same,IC50,FM3A,920 nM
same,IC50,L1210,680 nM
same,Activity,U-937 [42],Active
same,Activity,HL-60 [43],Active
same,Activity,MOLT-3 [44],Active
same,fold change (FC),U-937 [45],4
